# Laboratory results reported in US20230310428A1, “EGFR INHIBITOR AND PREPARATION METHOD AND USE THEREOF” (HONGYUN BIOTECH CO., LTD., priority 2020, published 2023).
# Where two headings read alike, the source gives them in different places.
# How the values were obtained:
# Assay in all cases: Growth inhibitory activity of compounds on BaF3 cell lines stably transfected with kinase (MTS, 48 h)
# Type in all cases: cell-based
# [1] = biological target: T1, various mutants of kinase EGFR (BaF3 cell lines stably transfected with kinase) (Homo sapiens, UniProt P00533, L858R)
# T1 construct: expressed in transfected cells; host or cells: BaF3
# Summary of the method: (§1)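 First, cells were seeded and treated with an eight-point threefold dilution series starting at 10 µM (0.1% DMSO). After 48 h at 37 °C, MTS reagent was added for 1-4 h before absorbance at 490 nm. Inhibition rates gave the IC50.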
# [2] = biological target: T2, various mutants of kinase EGFR (BaF3 cell lines stably transfected with kinase) (Homo sapiens, UniProt P00533, C797S/L858R/T790M)
# T2 construct: expressed in transfected cells; host or cells: BaF3
# T2 sequence (P00533 25-1210 T790M/C797S/L858R): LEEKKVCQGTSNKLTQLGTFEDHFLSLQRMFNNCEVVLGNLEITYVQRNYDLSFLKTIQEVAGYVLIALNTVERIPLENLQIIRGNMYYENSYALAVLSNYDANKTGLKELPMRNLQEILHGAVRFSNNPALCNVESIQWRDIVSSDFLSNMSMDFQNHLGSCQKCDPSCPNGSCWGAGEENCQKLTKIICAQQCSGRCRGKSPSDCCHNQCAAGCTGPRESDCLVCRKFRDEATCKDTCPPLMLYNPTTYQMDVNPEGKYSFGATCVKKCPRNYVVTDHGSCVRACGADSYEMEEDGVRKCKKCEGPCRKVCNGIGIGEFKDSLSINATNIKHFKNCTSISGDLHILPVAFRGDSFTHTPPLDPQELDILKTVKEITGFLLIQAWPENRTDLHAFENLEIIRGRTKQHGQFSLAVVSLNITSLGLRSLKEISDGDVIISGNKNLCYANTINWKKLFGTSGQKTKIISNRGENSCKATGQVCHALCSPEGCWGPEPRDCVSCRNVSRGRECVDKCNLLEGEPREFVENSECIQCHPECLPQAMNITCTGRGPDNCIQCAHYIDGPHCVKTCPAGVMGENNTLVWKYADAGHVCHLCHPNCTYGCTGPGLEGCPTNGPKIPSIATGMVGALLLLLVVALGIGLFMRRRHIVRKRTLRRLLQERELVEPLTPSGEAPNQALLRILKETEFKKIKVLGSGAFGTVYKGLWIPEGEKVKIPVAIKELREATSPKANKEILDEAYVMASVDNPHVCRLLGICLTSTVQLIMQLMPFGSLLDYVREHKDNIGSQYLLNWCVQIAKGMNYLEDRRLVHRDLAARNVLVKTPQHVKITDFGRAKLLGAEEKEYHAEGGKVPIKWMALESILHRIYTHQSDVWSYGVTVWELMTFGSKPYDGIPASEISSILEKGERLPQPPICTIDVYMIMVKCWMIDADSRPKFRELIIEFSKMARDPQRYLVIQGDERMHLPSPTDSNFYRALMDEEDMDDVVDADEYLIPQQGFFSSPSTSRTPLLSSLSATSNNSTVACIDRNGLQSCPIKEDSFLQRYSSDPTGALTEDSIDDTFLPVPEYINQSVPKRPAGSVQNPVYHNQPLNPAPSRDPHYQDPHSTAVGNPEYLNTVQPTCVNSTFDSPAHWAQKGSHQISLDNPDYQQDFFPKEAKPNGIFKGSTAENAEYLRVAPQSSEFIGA
# Summary of the method: as §1
# [3] = biological target: T3, various mutants of kinase EGFR (BaF3 cell lines stably transfected with kinase) (Homo sapiens, UniProt P00533, L858R/T790M)
# T3 construct: expressed in transfected cells; host or cells: BaF3
# T3 sequence (P00533 25-1210 T790M/L858R): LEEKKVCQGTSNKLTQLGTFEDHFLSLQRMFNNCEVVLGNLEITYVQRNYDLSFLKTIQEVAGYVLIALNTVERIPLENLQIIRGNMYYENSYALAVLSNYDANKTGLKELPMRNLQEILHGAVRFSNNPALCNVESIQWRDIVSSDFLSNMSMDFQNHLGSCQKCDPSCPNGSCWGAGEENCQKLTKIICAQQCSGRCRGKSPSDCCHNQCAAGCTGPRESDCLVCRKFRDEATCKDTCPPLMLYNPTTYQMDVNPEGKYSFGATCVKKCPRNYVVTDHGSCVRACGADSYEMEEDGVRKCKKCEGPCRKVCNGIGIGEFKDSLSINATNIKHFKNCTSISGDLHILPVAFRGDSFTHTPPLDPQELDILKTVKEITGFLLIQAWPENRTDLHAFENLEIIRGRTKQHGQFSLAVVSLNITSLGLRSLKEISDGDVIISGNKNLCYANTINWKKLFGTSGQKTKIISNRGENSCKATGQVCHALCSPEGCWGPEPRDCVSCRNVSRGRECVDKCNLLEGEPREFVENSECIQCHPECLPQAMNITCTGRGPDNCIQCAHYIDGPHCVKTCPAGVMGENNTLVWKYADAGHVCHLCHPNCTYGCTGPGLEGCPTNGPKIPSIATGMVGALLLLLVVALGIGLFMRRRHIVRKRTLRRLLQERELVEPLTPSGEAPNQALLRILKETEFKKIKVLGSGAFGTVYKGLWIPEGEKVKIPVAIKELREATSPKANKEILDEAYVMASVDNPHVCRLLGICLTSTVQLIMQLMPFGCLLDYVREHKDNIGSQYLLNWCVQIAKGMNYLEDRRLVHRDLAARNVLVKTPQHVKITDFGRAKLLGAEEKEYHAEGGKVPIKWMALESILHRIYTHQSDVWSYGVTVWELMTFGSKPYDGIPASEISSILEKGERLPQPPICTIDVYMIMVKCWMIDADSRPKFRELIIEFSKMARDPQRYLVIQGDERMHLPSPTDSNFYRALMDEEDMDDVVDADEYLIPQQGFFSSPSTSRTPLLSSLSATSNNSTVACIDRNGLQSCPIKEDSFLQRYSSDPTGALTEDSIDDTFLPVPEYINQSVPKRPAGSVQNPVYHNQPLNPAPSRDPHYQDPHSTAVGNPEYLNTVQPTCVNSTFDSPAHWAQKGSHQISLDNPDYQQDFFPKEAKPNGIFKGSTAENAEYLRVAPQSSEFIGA
# Summary of the method: as §1
# [4] = biological target: T4, various mutants of kinase EGFR (BaF3 cell lines stably transfected with kinase) (Homo sapiens, UniProt P00533, T790M/C797S, form not given)
# T4 construct: other: BaF3 cells stably transfected with EGFR Δ19Del/T790M/C797S; MTS, 48; other: BaF3 cell line stably transfected with EGFR Δ19Del/T790M/C7
# Summary of the method: as §1
# [5] = biological target: T5, various mutants of kinase EGFR (BaF3 cell lines stably transfected with kinase) (Homo sapiens, UniProt P00533, T790M, form not given)
# T5 construct: other: BaF3 cells stably transfected with EGFR Δ19Del/T790M; MTS, 48 h; other: BaF3 cell line stably transfected with EGFR Δ19Del/T790M; MTS, 48
# T5 sequence (P00533 with tags, fused parts or gaps DEL746-750/T790M, form open): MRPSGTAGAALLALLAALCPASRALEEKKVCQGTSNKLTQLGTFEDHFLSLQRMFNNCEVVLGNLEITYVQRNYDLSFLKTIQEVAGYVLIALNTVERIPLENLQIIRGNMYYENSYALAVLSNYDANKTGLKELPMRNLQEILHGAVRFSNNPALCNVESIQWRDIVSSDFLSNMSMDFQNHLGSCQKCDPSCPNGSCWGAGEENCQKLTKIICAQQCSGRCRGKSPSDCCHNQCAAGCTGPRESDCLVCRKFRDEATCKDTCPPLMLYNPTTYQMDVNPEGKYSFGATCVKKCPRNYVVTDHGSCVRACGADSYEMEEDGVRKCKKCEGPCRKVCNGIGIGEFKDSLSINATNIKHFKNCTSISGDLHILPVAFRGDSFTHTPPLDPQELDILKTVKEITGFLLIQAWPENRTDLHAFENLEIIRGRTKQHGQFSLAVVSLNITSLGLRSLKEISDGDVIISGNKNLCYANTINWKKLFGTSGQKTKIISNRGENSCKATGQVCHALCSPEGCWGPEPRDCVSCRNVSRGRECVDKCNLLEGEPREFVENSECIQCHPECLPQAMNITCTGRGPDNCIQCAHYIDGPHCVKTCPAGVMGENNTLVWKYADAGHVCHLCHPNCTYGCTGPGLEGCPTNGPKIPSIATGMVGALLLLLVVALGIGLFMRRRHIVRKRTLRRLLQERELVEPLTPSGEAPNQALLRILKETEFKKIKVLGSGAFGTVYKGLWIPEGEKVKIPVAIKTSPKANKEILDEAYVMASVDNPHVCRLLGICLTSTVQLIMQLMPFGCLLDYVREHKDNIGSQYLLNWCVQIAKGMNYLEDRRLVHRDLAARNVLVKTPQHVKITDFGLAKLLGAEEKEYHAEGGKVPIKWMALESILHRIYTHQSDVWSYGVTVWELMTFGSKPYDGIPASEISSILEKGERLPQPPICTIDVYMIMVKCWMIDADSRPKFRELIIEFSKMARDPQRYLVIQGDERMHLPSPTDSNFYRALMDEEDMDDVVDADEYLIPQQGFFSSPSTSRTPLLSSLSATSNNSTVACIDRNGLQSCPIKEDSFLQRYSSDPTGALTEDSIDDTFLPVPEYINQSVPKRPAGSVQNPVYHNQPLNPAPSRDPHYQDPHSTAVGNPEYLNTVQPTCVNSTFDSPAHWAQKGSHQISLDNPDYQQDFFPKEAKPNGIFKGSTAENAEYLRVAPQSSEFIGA
# Summary of the method: as §1
# [6] = biological target: T6, various mutants of kinase EGFR (BaF3 cell lines stably transfected with kinase) (Homo sapiens, UniProt P00533)
# T6 construct: other: BaF3 cells stably transfected with EGFR Δ19Del; MTS, 48 h; other: BaF3 cell line stably transfected with EGFR Δ19Del
# T6 sequence (P00533 with tags, fused parts or gaps DEL746-750): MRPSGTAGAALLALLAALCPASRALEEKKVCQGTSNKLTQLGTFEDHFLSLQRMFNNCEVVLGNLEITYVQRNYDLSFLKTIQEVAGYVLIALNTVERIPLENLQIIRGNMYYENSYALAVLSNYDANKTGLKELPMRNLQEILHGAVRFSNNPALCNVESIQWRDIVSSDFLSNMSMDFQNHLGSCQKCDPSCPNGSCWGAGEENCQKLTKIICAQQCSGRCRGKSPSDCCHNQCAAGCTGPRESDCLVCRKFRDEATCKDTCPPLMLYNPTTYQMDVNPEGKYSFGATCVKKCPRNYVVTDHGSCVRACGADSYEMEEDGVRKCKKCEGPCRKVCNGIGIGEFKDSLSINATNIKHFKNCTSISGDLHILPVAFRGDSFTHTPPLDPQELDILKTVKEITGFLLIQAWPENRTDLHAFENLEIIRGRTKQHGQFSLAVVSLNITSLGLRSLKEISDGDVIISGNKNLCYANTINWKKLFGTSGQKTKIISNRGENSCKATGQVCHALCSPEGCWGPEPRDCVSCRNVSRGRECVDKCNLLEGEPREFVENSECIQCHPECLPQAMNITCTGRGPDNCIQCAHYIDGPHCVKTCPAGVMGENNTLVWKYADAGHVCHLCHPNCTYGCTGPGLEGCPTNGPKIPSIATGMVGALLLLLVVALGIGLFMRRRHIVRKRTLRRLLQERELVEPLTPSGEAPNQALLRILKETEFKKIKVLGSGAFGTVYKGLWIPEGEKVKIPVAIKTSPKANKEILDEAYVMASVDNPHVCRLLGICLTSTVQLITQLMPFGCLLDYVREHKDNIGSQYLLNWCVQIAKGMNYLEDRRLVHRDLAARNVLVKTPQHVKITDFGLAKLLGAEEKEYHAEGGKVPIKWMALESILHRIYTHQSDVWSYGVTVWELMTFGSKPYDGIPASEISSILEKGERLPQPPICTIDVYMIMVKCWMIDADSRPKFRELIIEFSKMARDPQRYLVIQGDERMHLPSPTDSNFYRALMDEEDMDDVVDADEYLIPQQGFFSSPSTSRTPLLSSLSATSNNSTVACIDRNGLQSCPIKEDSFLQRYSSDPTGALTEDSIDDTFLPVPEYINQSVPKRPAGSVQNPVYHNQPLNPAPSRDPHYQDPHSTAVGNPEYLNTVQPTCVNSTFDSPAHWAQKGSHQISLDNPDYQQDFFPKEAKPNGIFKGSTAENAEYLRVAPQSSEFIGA
# Summary of the method: as §1
# [7] = BaF3 cell line stably transfected with EGFR L858R, read-out: L858R growth inhibitory activity IC50
# [8] = BaF3 cell line stably transfected with EGFR L858R/T790M/C797S, read-out: L858R/T790M/ C797S growth inhibitory activity IC50
# [9] = BaF3 cell line stably transfected with EGFR L858R/T790M, read-out: L858R/ T790M growth inhibitory activity IC50
# [10] = BaF3 cell line stably transfected with EGFR Δ19Del/T790M/C797S, read-out: Δ19Del/T790M/ C797S growth inhibitory activity IC50
# [11] = BaF3 cell line stably transfected with EGFR Δ19Del/T790M, read-out: Δ19Del/ T790M growth inhibitory activity IC50
# [12] = BaF3 cell line stably transfected with EGFR Δ19Del, read-out: Δ19Del growth inhibitory activity IC50
# [13] = BaF3 cells stably transfected with EGFR L858R, read-out: IC50, growth inhibition, L858R
# [14] = BaF3 cells stably transfected with EGFR L858R/T790M/C797S, read-out: IC50, growth inhibition, L858R/T790M/C797S
# [15] = BaF3 cells stably transfected with EGFR L858R/T790M, read-out: IC50, growth inhibition, L858R/T790M
# [16] = BaF3 cells stably transfected with EGFR Δ19Del/T790M/C797S, read-out: IC50, growth inhibition, Δ19Del/T790M/C797S
# [17] = BaF3 cells stably transfected with EGFR Δ19Del/T790M, read-out: IC50, growth inhibition, Δ19Del/T790M
# [18] = BaF3 cells stably transfected with EGFR Δ19Del, read-out: IC50, growth inhibition, Δ19Del
"IC50 [1, 7]","IC50 [2, 8]","IC50 [3, 9]","IC50 [4, 10]","IC50 [5, 11]","IC50 [6, 12]","IC50 [1, 13]","IC50 [2, 14]","IC50 [3, 15]","IC50 [4, 16]","IC50 [5, 17]","IC50 [6, 18]",Compound
,,,,,,≤ 50 nM,≤ 50 nM,≤ 50 nM,≤ 50 nM,≤ 50 nM,≤ 50 nM,CCc1cc(Nc2ncc(Br)c(Nc3ccc4nccnc4c3N(CC)S(C)(=O)=O)n2)c(OC)cc1N1CCC(N(C)C)CC1 [Compound I-97]
≤ 50 nM,≤ 50 nM,≤ 50 nM,≤ 50 nM,50 to 500 nM,≤ 50 nM,,,,,,,CCc1cnc(Nc2cc(N3CCC(O)CC3)ccc2OC)nc1Nc1ccc2nccnc2c1N(C)S(C)(=O)=O [Compound I-363]
,,,,,,≤ 50 nM,≤ 50 nM,≤ 50 nM,≤ 50 nM,≤ 50 nM,≤ 50 nM,CCc1cc(Nc2ncc(Cl)c(Nc3ccc4nccnc4c3N(C)S(C)(=O)=O)n2)c(OC)cc1N1CCC(N(C)C)CC1 [Compound I-170]
,,,,,,≤ 50 nM,≤ 50 nM,≤ 50 nM,≤ 50 nM,≤ 50 nM,50 to 500 nM,COc1cc(N2CCC(N(C)C)C2)c(C)cc1Nc1ncc(Br)c(Nc2ccc3nccnc3c2N(C)S(C)(=O)=O)n1 (stereo not drawn) [Compound I-14]
50 to 500 nM,50 to 500 nM,50 to 500 nM,≤ 50 nM,50 to 500 nM,50 to 500 nM,,,,,,,CCc1cc(Nc2ncc(Br)c(Nc3ccc4nccnc4c3N(C)S(C)(=O)=O)n2)c(OC)cc1C(=O)N1CCC(N2CCN(C)CC2)CC1 [Compound I-355]
,,,,,,≤ 50 nM,≤ 50 nM,≤ 50 nM,≤ 50 nM,≤ 50 nM,≤ 50 nM,CCc1cc(Nc2ncc(Cl)c(Nc3ccc4nccnc4c3N(C)S(=O)(=O)C(C)C)n2)c(OC)cc1N1CCC(N(C)C)CC1 [Compound I-142]
≤ 50 nM,≤ 50 nM,≤ 50 nM,≤ 50 nM,≤ 50 nM,≤ 50 nM,,,,,,,CCc1cc(Nc2ncc(Br)c(Nc3ccc4nccnc4c3NS(C)(=O)=O)n2)c(OC)cc1N1CCC(N(C)C)C1 (stereo not drawn) [Compound I-412]
≤ 50 nM,≤ 50 nM,≤ 50 nM,≤ 50 nM,≤ 50 nM,≤ 50 nM,,,,,,,CCc1cc(Nc2ncc(C)c(Nc3ccc4nccnc4c3N(C)S(C)(=O)=O)n2)c(OC)cc1N1CCN(C)CC1 [Compound I-315]
,,,,,,500 to 2500 nM,≤ 50 nM,≤ 50 nM,50 to 500 nM,50 to 500 nM,50 to 500 nM,CN(c1c(Nc2nc(Nc3cccc(N4CCC(O)CC4)c3)ncc2Br)ccc2nccnc12)S(C)(=O)=O [Compound I-76]
50 to 500 nM,≤ 50 nM,50 to 500 nM,≤ 50 nM,50 to 500 nM,500 to 2500 nM,,,,,,,COc1ccc(N2CCC(O)CC2)cc1Nc1ncc(Br)c(Nc2ccc3nccnc3c2N(C)S(=O)(=O)C(F)(F)F)n1 [Compound I-371]
,,,,,,≤ 50 nM,≤ 50 nM,≤ 50 nM,≤ 50 nM,≤ 50 nM,≤ 50 nM,CCc1cc(Nc2ncc(Cl)c(Nc3ccc4nccnc4c3N(C)S(C)(=O)=O)n2)ccc1N1CCC(N2CCN(C)CC2)CC1 [Compound I-289]

# Continued, molecule first:
Compound,"IC50 [1, 7]","IC50 [2, 8]","IC50 [3, 9]","IC50 [4, 10]","IC50 [5, 11]","IC50 [6, 12]","IC50 [1, 13]","IC50 [2, 14]","IC50 [3, 15]","IC50 [4, 16]","IC50 [5, 17]","IC50 [6, 18]"
CCc1cc(Nc2ncc(Br)c(Nc3ccc4nccnc4c3NS(=O)(=O)C(C)C)n2)c(OC)cc1N1CCC(N2CCN(C)CC2)CC1 [Compound I-415],≤ 50 nM,≤ 50 nM,≤ 50 nM,≤ 50 nM,≤ 50 nM,≤ 50 nM,,,,,,
CN1CCc2cc(F)c(Nc3ncc(Br)c(Nc4ccc5nccnc5c4N(C)S(C)(=O)=O)n3)cc2C1 [Compound I-87],,,,,,,≤ 50 nM,≤ 50 nM,50 to 500 nM,≤ 50 nM,50 to 500 nM,≤ 50 nM
CCN(c1c(Nc2nc(Nc3cc(C)c(N4CCC(N5CCN(C)CC5)CC4)nc3OC)ncc2Cl)ccc2nccnc12)S(C)(=O)=O [Compound I-226],,,,,,,500 to 2500 nM,500 to 2500 nM,50 to 500 nM,500 to 2500 nM,50 to 500 nM,500 to 2500 nM
COc1cc(N2CCC(N3CCN(C)CC3)CC2)c(C)cc1Nc1nc(Nc2ccc3nccnc3c2N(C)S(C)(=O)=O)c2ccsc2n1 [II-2-1],500 to 2500 nM,500 to 2500 nM,500 to 2500 nM,50 to 500 nM,500 to 2500 nM,500 to 2500 nM,,,,,,
COc1cc(N2CCC(N3CCN(C)CC3)CC2)c(CC2CC2)cc1Nc1ncc(F)c(Nc2ccc3nccnc3c2N(C)S(C)(=O)=O)n1 [Compound I-181],,,,,,,≤ 50 nM,50 to 500 nM,≤ 50 nM,≤ 50 nM,50 to 500 nM,≤ 50 nM
Cc1ccc(Nc2ncc(Br)c(Nc3ccc4nccnc4c3N(C)S(C)(=O)=O)n2)cn1 [Compound I-63],,,,,,,50 to 500 nM,50 to 500 nM,≤ 50 nM,50 to 500 nM,≤ 50 nM,≤ 50 nM
CCc1cc(Nc2nc(Nc3ccc4nccnc4c3N(C)S(C)(=O)=O)c3ccsc3n2)c(OC(F)(F)F)cc1N1CCC(N2CCN(C)CC2)CC1 [II-2-4],500 to 2500 nM,500 to 2500 nM,500 to 2500 nM,500 to 2500 nM,500 to 2500 nM,500 to 2500 nM,,,,,,
COc1cc(N2CCC(N3CCN(C)CC3)CC2)c(CC2CC2)cc1Nc1ncc([N+](=O)[O-])c(Nc2ccc3nccnc3c2N(C)S(C)(=O)=O)n1 [Compound I-191],,,,,,,50 to 500 nM,50 to 500 nM,50 to 500 nM,≤ 50 nM,50 to 500 nM,50 to 500 nM
C=Cc1cc(Nc2ncc(C(F)(F)F)c(Nc3ccc4nccnc4c3N(C)S(C)(=O)=O)n2)c(OC(F)(F)F)cc1N1CCC(N2CCN(C)CC2)CC1 [Compound I-202],,,,,,,50 to 500 nM,50 to 500 nM,≤ 50 nM,≤ 50 nM,≤ 50 nM,50 to 500 nM
COc1cc(N2CCC(N3CCN(C)CC3)CC2)c(Cc2ccccc2)cc1Nc1ncc(F)c(Nc2ccc3nccnc3c2N(C)S(C)(=O)=O)n1 [Compound I-182],,,,,,,500 to 2500 nM,500 to 2500 nM,500 to 2500 nM,500 to 2500 nM,500 to 2500 nM,500 to 2500 nM
CCc1cc(Nc2ncc(Cl)c(Nc3ccc4nccnc4c3N(C)S(=O)(=O)C(F)(F)F)n2)c(OC(F)(F)F)cc1N1CCC(N2CCN(C)CC2)CC1 [Compound I-131],,,,,,,500 to 2500 nM,50 to 500 nM,500 to 2500 nM,50 to 500 nM,50 to 500 nM,500 to 2500 nM
CCN(c1c(Nc2nc(Nc3cc(C)c(N4CCC(N(C)C)C4)cc3OC)ncc2Br)ccc2nccnc12)S(C)(=O)=O (stereo not drawn) [Compound I-302],,,,,,,50 to 500 nM,≤ 50 nM,≤ 50 nM,50 to 500 nM,≤ 50 nM,50 to 500 nM
COc1cc(N2CCC(N3CCN(C)CC3)CC2)c(Cc2ccccc2)cc1Nc1ncc(C(F)(F)F)c(Nc2ccc3nccnc3c2N(C)S(C)(=O)=O)n1 [Compound I-204],,,,,,,500 to 2500 nM,500 to 2500 nM,500 to 2500 nM,500 to 2500 nM,500 to 2500 nM,500 to 2500 nM
COc1cc(N2CCC(N3CCN(C)CC3)CC2)c(C(C)C)cc1Nc1ncc(Cl)c(Nc2ccc3nccnc3c2N(C)S(C)(=O)=O)n1 [Compound I-288],,,,,,,≤ 50 nM,50 to 500 nM,50 to 500 nM,50 to 500 nM,50 to 500 nM,50 to 500 nM
C=Cc1cc(Nc2nc(Nc3ccc4nccnc4c3N(C)S(C)(=O)=O)c3occc3n2)c(OC(F)(F)F)cc1N1CCC(N2CCN(C)CC2)CC1 [II-1-42],50 to 500 nM,50 to 500 nM,50 to 500 nM,50 to 500 nM,50 to 500 nM,50 to 500 nM,,,,,,
